Data from patent publication US9856290B2, “Glycopeptide compositions and uses thereof” (SUSSEX RESEARCH LABORATORIES INC., priority 2013, dated 2018).
Marks after values point to notes of the source that are not given here. The star is where a group is joined. Ac7‑β‑Mal = peracetylated β-maltose, CC(=O)OC[C@H]1O[C@@H](*)[C@H](OC(C)=O)[C@@H](OC(C)=O)[C@@H]1O[C@H]1O[C@H](COC(C)=O)[C@@H](OC(C)=O)[C@H](OC(C)=O)[C@H]1OC(C)=O; Ac4‑β‑Glc = per-acetylated β-glucose (tetraacetyl), CC(=O)OC[C@H]1O[C@@H](*)[C@H](OC(C)=O)[C@@H](OC(C)=O)[C@@H]1OC(C)=O; αGalNAc = CC(=O)N[C@@H]1[C@@H](O)[C@@H](O)[C@@H](CO)O[C@@H]1*; βGlcNAc = CC(=O)N[C@@H]1[C@@H](O)[C@H](O)[C@@H](CO)O[C@H]1*; βGlc = OC[C@H]1O[C@@H](*)[C@H](O)[C@@H](O)[C@@H]1O; βGal = OC[C@H]1O[C@@H](*)[C@H](O)[C@@H](O)[C@H]1O; Palmitoyl = CCCCCCCCCCCCCCCC(=O)*

Experiments:
[1] = system: MatTek's EpiDermFT 3D human in vitro skin model; assay: Histology (hematoxylin & eosin) of 3D human in vitro skin model; type: cell-based; settings: 5 μM, 72 hours post treatment
Procedure: MatTek's EpiDermFT™ 3D human in vitro skin model was produced by MatTek Corporation (Ashland, Mass., USA). The 3D skin model is comprised of normal human epidermal keratinocytes (NHEK) and normal human dermal fibroblasts (NHDF) derived from neonatal-foreskin tissue and adult skin, respectively. […] The tissues were grown at air-liquid interface in Costar Snapwell™ single well tissue culture plate inserts with 0.4 μm pore size, 1.2 cm in diameter and 1.0 cm^2 surface area. For tissue maintenance, serum-free EFT-400-ASY media was used containing Dulbecco's Modified Eagle's Medium (DMEM), epidermal growth factor, insulin, hydrocortisone, 5 μg/mL gentamicin, 0.2 μg/ml amphotericin B and phenol red.
Tissues were rinsed twice with 1% PBS and treated with 5 μM GP003-9, reference (Pal-KTTKS, CPC Scientific, 822197), and control (DMSO, Fisher, BP231-100). At 72 hours post treatment, the tissue was fixed in 10% neutral buffered formalin overnight and transferred to 1% PBS the next day. […]
MatTek's EpiDermFT™, which is a 3D human in vitro skin model (comprised of normal human epidermal ketatinocytes and normal human dermal fibroblasts), was used to further investigate the effects of an exemplary glycosylated peptide (GP003-9 (SEQ ID NO: 6)) on human skin. […] At 72 hours post treatment, supernatants were isolated and analysed for elastin secretion. […]

human lung fibroblasts = human lung fibroblasts in vitro; cited from earlier work
[2] = system: Human Dermal Fibroblasts (KMST-6); assay: ECM ELISA assay: elastin secretion by human dermal fibroblasts; type: cell-based; settings: 5 μM; for Elastin Secretion at 48 hours: KMST-6, 48 hours; for Elastin Secretion at 48 hours / Elastin Secretion at 72 hours: % compared to control set at 100%, normalized to total protein
How it was run: (§1)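 KMST-6 human dermal fibroblasts treated with 5 μM compound in serum-free medium with sodium ascorbate and β-aminopropionate fumarate for 48 and 72 h. Secreted fibronectin and elastin quantified by ELISA (450 nm, 4-parameter standard curve), normalized to total cellular protein and expressed as % of DMSO control.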

[3] = system: Human Dermal Fibroblasts (KMST-6); assay: ECM ELISA assay: fibronectin secretion by human dermal fibroblasts; type: cell-based; settings: 5 μM; for Fibronectin secretion at 48 hours: KMST-6, 48 hours; for Fibronectin secretion at 48 hours / Fibronectin Secretion at 72 hours: % compared to control set at 100%, normalized to total protein
How it was run: as §1

[4] = system: Human Dermal Fibroblasts (KMST-6); assay: Total Collagen Assay (Sirius Red Collagen Detection Kit); type: cell-based; settings: 5 μM
Procedure: KMST-6 cells (Japan Health Sciences Foundation, JCRB0433) were seeded at 7,000 cells/mL in 60 mm tissue culture treated plates (Falcon, 353002) in complete media. The complete media consisted of the following: MEM/EBSS (Hyclone, SH30024.01), 10% Heat-Inactivated FBS (Gibco, 10082-147), 1% L-Glutamine (Hyclone, SH30031.01), 1% Nucleosides (800 mg/L Adenosine, 850 mg/L Guanidine, 730 mg/L Cytidine, 730 mg/L Uridine and 240 mg/L Thymidine), 1% Penicillin/Streptomycin (HyClone, SV30010), 1% Sodium Pyruvate (HyClone, SH30239.01), 1% Non-Essential Amino Acids (Hyclone, SH30238.01) and 0.04% Gentamicin (Gibco, 15710-064). Cells were grown for 2 days prior to treatments. The cells were washed with 1×PBS (Fisher, SH30256.01) and treated with 5 μM glycopeptides (GP003-9, GP004-3, GP004-4), reference (Pal-KTTKS, CPC Scientific, 822197), and control (DMSO, Fisher, BP231-100) in serum-free media supplemented with 50 µg/mL Sodium Ascorbate (Sigma, A4034) and 80 μg/mL β-Aminopropionate Fumarate (Sigma, A3134). The treated cells were incubated at 37° C. and 5% CO2 for 48 and 72 hours. At each timepoint, media from each treatment was collected and centrifuged at 1500 RPM for 15 minutes at 4° C. The supernatant was collected and stored at −80° C. for extracellular matrix protein quantification. The following kit was used for quantification of total collagen: Sirius Red Collagen Detection Kit (Chondrex Inc., 9062). The cells were harvested and lysed with Lysis Buffer (20 mM Tris-HCl (Sigma, T1503), 137 mM NaCl (Sigma, S9888), 2 mM EDTA (Fisher, BP118), 1% IGEPAL (Sigma, 18896), 10% Glycerol (Sigma, G5516), 100 μM PMSF (Fisher, 36978) and 10 μg/mL Leupeptin (Sigma, L2884)). They were placed on a container of ice on an orbital shaker (VWR, 89032-088) for 30 minutes. The cell lysate was centrifuged at 10,000 g for 5 minutes at 4° C. The supernatant was collected and used for protein quantification (BioRad, 500-0112). […]

[5] = 72 hours, versus Pal-KTTKS reference

Row | Compound | Elastin Secretion at 48 hours [2] | Elastin Secretion at 72 hours ([2]; KMST-6, 72 hours) | Fibronectin secretion at 48 hours [3] | Fibronectin Secretion at 72 hours ([3]; KMST-6, 72 hours) | other results
1 | CCCCCCCCCCCCCCCC(=O)N[C@@H](CCCCN)C(=O)N[C@H](C(=O)N[C@H](C(=O)N[C@@H](CCCCN)C(=O)N[C@@H](CO)C(=O)O)[C@@H](C)O)[C@@H](C)O[C@@H]1O[C@H](COC(C)=O)[C@@H](O[C@H]2O[C@H](COC(C)=O)[C@@H](OC(C)=O)[C@H](OC(C)=O)[C@H]2OC(C)=O)[C@H](OC(C)=O)[C@H]1OC(C)=O [GP003-9, Pal-KT(Ac7-β-Mal)TKS-OH] | – | – | – | – | effect on the histology of the 3D human skin model [1]: no detrimental effect
2 | Lys-Thr-Thr-Lys-Ser (KTTKS; listed as Homo sapiens) [pentapeptide derived from the carboxyl-terminus of type I procollagen] | – | – | – | – | ECM proteins (synthesis of collagen types I and III and fibronectin) (human lung fibroblasts): significantly augment the ECM proteins
3 | Pal-KTT(Ac7-β-Mal)KS-OH (Palmitoyl-KTT(Ac7‑β‑Mal)KS-OH; SMILES CCCCCCCCCCCCCCCC(=O)N[C@@H](CCCCN)C(=O)N[C@H](C(=O)N[C@H](C(=O)N[C@@H](CCCCN)C(=O)N[C@@H](CO)C(=O)O)[C@@H](C)O[C@@H]1O[C@H](COC(C)=O)[C@@H](O[C@H]2O[C@H](COC(C)=O)[C@@H](OC(C)=O)[C@H](OC(C)=O)[C@H]2OC(C)=O)[C@H](OC(C)=O)[C@H]1OC(C)=O)[C@@H](C)O; listed as Homo sapiens) [GP004-3] | 226.1% | 384.7* % | 185.0* % | 168.3* % | biological activity in elastin secretion compared to control ([2]; 72 hours): greater biological activity; increased elastin secretion compared to control ([2]; 72 hours, versus DMSO control): 285%; increased secretion of elastin compared to the reference peptide [2, 5]: 252%; ELASTIN (ECM Protein Summary Table) ([2]; KMST-6, 72 hours, control 100%): 385*^# %; biological activity in fibronectin secretion compared to control ([3]; 72 hours): greater biological activity; increased fibronectin secretion compared to control ([3]; 72 hours, versus DMSO control): 68%; increased fibronectin secretion compared to reference [3, 5]: 50%; FIBRONECTIN (ECM Protein Summary Table) ([3]; KMST-6, 72 hours, control 100%): 168*^# %; increased total collagen secretion compared to control ([4]; 72 hours, versus DMSO control): 31%; increased total collagen secretion compared to the reference peptide [4, 5]: 21%; TOTAL COLLAGEN (ECM Protein Summary Table) ([4]; KMST-6, 72 hours, control 100%): 131*^# %
4 | Pal-KTTKS(α-GalNAc)-OH (Palmitoyl-KTTKS(αGalNAc)-OH; SMILES CCCCCCCCCCCCCCCC(=O)N[C@@H](CCCCN)C(=O)N[C@H](C(=O)N[C@H](C(=O)N[C@@H](CCCCN)C(=O)N[C@@H](CO[C@H]1O[C@H](CO)[C@H](O)[C@H](O)[C@H]1NC(C)=O)C(=O)O)[C@@H](C)O)[C@@H](C)O; listed as Homo sapiens) [GP002-2] | 143.8% | 127.0% | 95.7% | 90.60% | –
5 | Pal-KTTKS(β-Gal)-OH (Palmitoyl-KTTKS(βGal)-OH; SMILES CCCCCCCCCCCCCCCC(=O)N[C@@H](CCCCN)C(=O)N[C@H](C(=O)N[C@H](C(=O)N[C@@H](CCCCN)C(=O)N[C@@H](CO[C@@H]1O[C@H](CO)[C@H](O)[C@H](O)[C@H]1O)C(=O)O)[C@@H](C)O)[C@@H](C)O; listed as Homo sapiens) [GP002-8] | 103.8% | 177.8% | 110.0% | 121.0% | –
6 | Pal-KTTKS(β-Glc)-OH (Palmitoyl-KTTKS(βGlc)-OH; SMILES CCCCCCCCCCCCCCCC(=O)N[C@@H](CCCCN)C(=O)N[C@H](C(=O)N[C@H](C(=O)N[C@@H](CCCCN)C(=O)N[C@@H](CO[C@@H]1O[C@H](CO)[C@@H](O)[C@H](O)[C@H]1O)C(=O)O)[C@@H](C)O)[C@@H](C)O; listed as Homo sapiens) [GP002-4] | 145.0% | 142.0% | 121.5% | 116.0% | –
7 | Pal-KTTKS(β-GlcNAc)-OH (Palmitoyl-KTTKS(βGlcNAc)-OH; SMILES CCCCCCCCCCCCCCCC(=O)N[C@@H](CCCCN)C(=O)N[C@H](C(=O)N[C@H](C(=O)N[C@@H](CCCCN)C(=O)N[C@@H](CO[C@@H]1O[C@H](CO)[C@@H](O)[C@H](O)[C@H]1NC(C)=O)C(=O)O)[C@@H](C)O)[C@@H](C)O; listed as Homo sapiens) [GP002-6] | 150.7% | 111.0% | 109.7% | 115.8% | –
8 | Pal-N(Ac4-β-Glc)KTTKS-OH (Palmitoyl-N(Ac4‑β‑Glc)KTTKS-OH; listed as Homo sapiens) [GP003-7] | 105.0% | 148.2% | 139.8% | 118.5% | –
9 | Pal-N(β-Glc)KTTKS-OH (Palmitoyl-N(βGlc)KTTKS-OH; listed as Homo sapiens) [GP003-8] | 111.3% | 146.5% | 157.2% | 126.0% | –
